Our source for the fold induction and IC50 values is US20220324835A1 (Nurix Therapeutics, Inc., priority 2018, published 2022).

The subject of assay [1] is T-cell. Nature of the assay: CD25 cell surface staining on T-cells co-stimulated with anti-CD3 and anti-CD28 antibody (Biological Example 2). It counts as cell-based, human. The conditions noted are these: Homo sapiens, T-cell, fold change over baseline, primary human total T-cells, read-out: CD25 staining Anti-CD3/Anti-CD28 stimulation; for fold induction at 0.3 µM: 0.3 μM Cbl-b inhibitor; for fold induction at 1 µM: 1 μM Cbl-b inhibitor; for fold induction at 4 µM: 4 μM Cbl-b inhibitor. The source says: (§1) Methods for experimentally determining increased T-cell activation, increased T-cell proliferation, decreased T-cell exhaustion, and/or decreased T-cell tolerance are well known in the art.
(§2) Modulation of activity of an immune cell, such as a T-cell, a B cell or a NK cell can be measured by determining a baseline value for a parameter of interest (e.g., cytokine secretion). […] A reference value then is obtained for T-cell activation after contacting or administering said Cbl-b inhibitor. The reference value is compared to the baseline value in order to determine the amount of T-cell activation due to contact or administration of the Cbl-b inhibitor or composition thereof. […] Immune cell activation can be assessed by measuring biological markers of activation such as increased cytokine secretion, increased cell surface expression of activation markers (e.g., cell surface markers), or increased phosphorylation of proteins in a downstream signaling pathway. The fold over baseline value that indicates immune cell activation can be determined for the parameter being tested and the conditions under which the immune cell were treated. For example, for measuring T-cell activation, a baseline value can be obtained from T-cells stimulated with anti-CD3 antibody in combination with anti-CD28 antibody, wherein the cells are not incubated with a Cbl-b inhibitor. […] A positive response for immune cell activation can then be determined by the obtained reference value. […]

Assay [2] has as its system T-cell. Nature of the assay: IL-2 secretion from T-cells co-stimulated with anti-CD3 and anti-CD28 antibody (Biological Example 2). It counts as cell-based, human. The conditions noted are these: Homo sapiens, T-cell, fold change over baseline, primary human total T-cells, read-out: IL-2 secretion Anti-CD3/Anti-CD28 stimulation; for fold induction at 0.3 µM: 0.3 μM Cbl-b inhibitor; for fold induction at 1 µM: 1 μM Cbl-b inhibitor; for fold induction at 4 µM: 4 μM Cbl-b inhibitor.
Excerpt: as §1, §2

The subject of assay [3] is T-cell. Put plainly: CD25 cell surface staining on T-cells stimulated with anti-CD3 antibody alone (Biological Example 2). It counts as cell-based, human. The conditions noted are these: T-cell, fold change over baseline, primary human total T-cells, read-out: CD25 staining Anti-CD3 stimulation; for fold induction at 1 µM: 1 μM Cbl-b inhibitor; for fold induction at 8 µM: 8 μM Cbl-b inhibitor.
Excerpt: as §1
(§3) Modulation of activity of an immune cell, such as a T-cell, a B cell or a NK cell can be measured by determining a baseline value for a parameter of interest (e.g., cytokine secretion). […] A reference value then is obtained for T-cell activation after contacting or administering said Cbl-b inhibitor. The reference value is compared to the baseline value in order to determine the amount of T-cell activation due to contact or administration of the Cbl-b inhibitor or composition thereof. […] Immune cell activation can be assessed by measuring biological markers of activation such as increased cytokine secretion, increased cell surface expression of activation markers (e.g., cell surface markers), or increased phosphorylation of proteins in a downstream signaling pathway. The fold over baseline value that indicates immune cell activation can be determined for the parameter being tested and the conditions under which the immune cell were treated. For example, for measuring T-cell activation, a baseline value can be obtained from T-cells stimulated with anti-CD3 antibody in combination with anti-CD28 antibody, wherein the cells are not incubated with a Cbl-b inhibitor. […] A positive response for immune cell activation can then be determined by the obtained reference value.
(§4) In some embodiments, a baseline value can be obtained from T-cells stimulated with anti-CD3 antibody alone, wherein the cells are not incubated with a Cbl-b inhibitor. In some embodiments, a positive response for T-cell activation as measured by cytokine secretion (e.g., IL-2 secretion) by T-cells stimulated with anti-CD3 antibody alone in the presence of a Cbl-b inhibitor is at least 0.1-fold over the baseline value for cytokine secretion (e.g., IL-2 secretion) obtained from T-cells stimulated with anti-CD3 antibody alone in the absence of a Cbl-b inhibitor. In some embodiments, a positive response for T-cell activation as measured by surface marker expression (e.g., CD25 surface marker staining) by T-cells stimulated with anti-CD3 antibody alone in the presence of a Cbl-b inhibitor is at least 0.6-fold over the baseline value for surface marker expression (e.g., CD25 surface marker staining) obtained from T-cells stimulated with anti-CD3 antibody alone in the absence of a Cbl-b inhibitor.

Assay [4] deals with T1, Cbl-b (Homo sapiens, UniProt Q13191). Put plainly: Cbl-b activity assay (Cbl-b inhibition assay), TR-FRET of Cbl-b interaction with UbcH5B-Ub. It counts as biochemical. Conditions: assay buffer with 100 mM NaCl, 60 nM Src kinase; read-out: Cbl-b activity IC50. The essentials: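 TR-FRET readout of Cbl-b binding to Bodipy-fluorescein N-terminally labeled Ub conjugated to UbcH5B C85K, measured with compound present. After compound incubation, 60 nM Src kinase with 1 mM ATP and 5 mM MgCl2 (final) was added for 1.5 h, then a further 1 h incubation; asterisked values used 50 mM NaCl buffer and 30 nM Src.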

In assay [5] the test system is T-cell. Put plainly: IL-2 secretion from T-cells stimulated with anti-CD3 antibody alone (Biological Example 2). Conditions: T-cell, fold change over baseline, primary human total T-cells, read-out: IL-2 secretion Anti-CD3 stimulation; for fold induction at 1 µM: 1 μM Cbl-b inhibitor; for fold induction at 8 µM: 8 μM Cbl-b inhibitor. It counts as cell-based, human.
Excerpt: as §1, §3, §4

For assay [6], the target named is T1, Cbl-b. Put plainly: Cbl-b inhibition assay (Cbl-b activity assay, FRET, Biological Example 1; 100 mM NaCl, 60 nM Src kinase). It counts as biochemical. The conditions noted are these: upper bound stated in text lists; read-out: IC50 values in the Cbl-b inhibition assay of Biological Example 1. The essentials: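 Binding-based Cbl-b activity assay. Src-phosphorylated, N-terminally biotin-Avi-tagged Cbl-b recruits labelled UbcH5B-Ub, and proximity to streptavidin-terbium yields FRET.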

pIC50: −log10 of the molar value.

As usually defined, the pIC50 is the IC50 on a negative log10 scale, so that one unit is a factor of ten.

T1 sequence (Q13191 36-427): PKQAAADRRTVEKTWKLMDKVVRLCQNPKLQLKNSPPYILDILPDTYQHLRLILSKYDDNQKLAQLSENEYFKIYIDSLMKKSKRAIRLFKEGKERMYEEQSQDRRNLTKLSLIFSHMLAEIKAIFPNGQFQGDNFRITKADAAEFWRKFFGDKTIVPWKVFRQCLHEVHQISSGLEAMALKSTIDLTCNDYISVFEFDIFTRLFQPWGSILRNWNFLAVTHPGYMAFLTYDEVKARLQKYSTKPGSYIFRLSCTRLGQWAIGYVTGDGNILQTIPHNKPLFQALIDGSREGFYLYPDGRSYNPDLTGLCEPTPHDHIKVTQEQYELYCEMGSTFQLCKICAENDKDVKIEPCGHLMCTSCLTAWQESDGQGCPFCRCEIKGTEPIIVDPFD

`C[C@H](Cc1nncn1C)c1cccc(NC(=O)c2cc(C(F)(F)F)n[nH]2)c1` [Compound 314, (R)-N-(3-(1-(4-Methyl-4H-1,2,4-triazol-3-yl)propan-2-yl)phenyl)-3-(trifluoromethyl)-1H-pyrazole-5-carboxamide]: the fold induction at 0.3 µM in assay [1] was in the range of 1.01 to 1.3; in assay [2] it was 1.01 to 2.5. Besides, the fold induction at 1 µM lay within 1.01 to 1.3 in assay [1], 1.01 to 2.5 in assay [2], 0.601 to 0.8 in assay [3] and 0.051 to 0.1 in assay [5]. Further, the fold induction at 4 µM in assay [1] was 1.01 to 1.3; in assay [2], 1.01 to 2.5. The results for the fold induction at 8 µM in assay [3] and in assay [5] were 0.601 to 0.8 and 0.101 to 0.15, respectively. In addition, in assay [4], the pIC50 was 6.00 to 6.52.

Regarding `C[C@H](Cc1nncn1C)c1cccc(NC(=O)c2coc(C(F)(F)F)n2)c1` [Compound 315, (R)-N-(3-(1-(4-Methyl-4H-1,2,4-triazol-3-yl)propan-2-yl)phenyl)-2-(trifluoromethyl)oxazole-4-carboxamide], in assay [1], the fold induction at 0.3 µM was 1.01 to 1.3, the fold induction at 1 µM fell in the range of 1.01 to 1.3 and the fold induction at 4 µM was in the range of 1.01 to 1.3. Besides, in assay [2], the fold induction at 0.3 µM was less than 1, the fold induction at 1 µM was in the range of 1.01 to 2.5 and the fold induction at 4 µM was 1.01 to 2.5. Further, in assay [3], the fold induction at 1 µM was in the range of 0.601 to 0.8 and the fold induction at 8 µM lay within 0.801 to 1. Also, the pIC50 in assay [4] is 6.00 to 6.52. In assay [5], the fold induction at 1 µM lay in the range of 0.051 to 0.1 and the fold induction at 8 µM lay in the range of 0.101 to 0.15.

Take `C[C@H](Cc1nncn1C)c1cccc(NC(=O)c2ccn3nccc3n2)c1` [Compound 316, (R)-N-(3-(1-(4-Methyl-4H-1,2,4-triazol-3-yl)propan-2-yl)phenyl)pyrazolo[1,5-a]pyrimidine-5-carboxamide]: in assay [1], the fold induction at 0.3 µM lay within 1.01 to 1.3, the fold induction at 1 µM lay within 1.01 to 1.3 and the fold induction at 4 µM fell in the range of 1.01 to 1.3. In assay [2], the fold induction at 0.3 µM was in the range of 1.01 to 2.5, the fold induction at 1 µM is 1.01 to 2.5 and the fold induction at 4 µM was in the range of 2.51 to 5. Moreover, in assay [3], the fold induction at 1 µM was in the range of 0.601 to 0.8 and the fold induction at 8 µM was more than 1. Moreover, the pIC50 in assay [4] is 6.00 to 6.52. Moreover, in assay [5], the fold induction at 1 µM was in the range of 0.051 to 0.1 and the fold induction at 8 µM fell in the range of 0.151 to 0.2.

In the case of `Cn1cnnc1CC1(c2cccc(N3Cc4c(cc(CN5CCO[C@H](CO)C5)cc4C(F)(F)F)C3=O)c2)COC1` [Example 710, (S)-6-((2-(hydroxymethyl)morpholino)methyl)-2-(3-(3-((4-methyl-4H-1,2,4-triazol-3-yl)methyl)oxetan-3-yl)phenyl)-4-(trifluoromethyl)isoindolin-1-one], the figures for the pIC50 in assay [6] and in assay [4] were not below 7.00 and more than 7.00, respectively.

Turning to `Cn1cnnc1CC1(c2cccc(N3Cc4c(cc(CN5CCN6C(=O)CCC6C5)cc4C(F)(F)F)C3=O)c2)COC1` (stereo not drawn) [Example 711, 2-((2-(3-(3-((4-methyl-4H-1,2,4-triazol-3-yl)methyl)oxetan-3-yl)phenyl)-3-oxo-7-(trifluoromethyl)isoindolin-5-yl)methyl)hexahydropyrrolo[1,2-a]pyrazin-6(2H)-one], the pIC50 was not below 7.00 in assay [6] and more than 7.00 in assay [4].

As for `Cn1cnnc1CC1(c2cccc(N3Cc4c(cc(CN5CCOC6(CCOC6)C5)cc4C(F)(F)F)C3=O)c2)COC1` (stereo not drawn) [Example 712, 6-((2,6-dioxa-9-azaspiro[4.5]decan-9-yl)methyl)-2-(3-(3-((4-methyl-4H-1,2,4-triazol-3-yl)methyl)oxetan-3-yl)phenyl)-4-(trifluoromethyl)isoindolin-1-one], the pIC50 in assay [6] is not below 7.00; in assay [4], more than 7.00.

On to `Cn1cnnc1CC1(c2cccc(N3Cc4c(cc(CN5CCOC(CF)C5)cc4C(F)(F)F)C3=O)c2)COC1` (stereo not drawn) [Example 714, 6-((2-(fluoromethyl)morpholino)methyl)-2-(3-(3-((4-methyl-4H-1,2,4-triazol-3-yl)methyl)oxetan-3-yl)phenyl)-4-(trifluoromethyl)isoindolin-1-one], for which the pIC50 in assay [6] is not below 7.00; in assay [4] it was more than 7.00.

Turning to `Cn1cnnc1CC1(c2cccc(N3Cc4c(cc(CN5CCOC(CC(F)(F)F)C5)cc4C(F)(F)F)C3=O)c2)COC1` (stereo not drawn) [Example 715, 2-(3-(3-((4-methyl-4H-1,2,4-triazol-3-yl)methyl)oxetan-3-yl)phenyl)-6-((2-(2,2,2-trifluoroethyl)morpholino)methyl)-4-(trifluoromethyl)isoindolin-1-one], the pIC50 in assay [6] was not below 7.00; in assay [4], more than 7.00.

On to `CC(C)C1CN(Cc2cc3c(c(C(F)(F)F)c2)CN(c2cccc(C4(Cc5nncn5C)COC4)c2)C3=O)CCO1` (stereo not drawn) [Example 716, 6-[(2-isopropylmorpholin-4-yl)methyl]-2-(3-{3-[(4-methyl-1,2,4-triazol-3-yl)methyl]oxetan-3-yl}phenyl)-4-(trifluoromethyl)-3H-isoindol-1-one], for which the pIC50 in assay [6] was not below 7.00; in assay [4], more than 7.00.

As for `Cn1cnnc1CC1(c2cccc(N3Cc4c(cc(CN5CCOC(CCO)C5)cc4C(F)(F)F)C3=O)c2)COC1` (stereo not drawn) [Example 717, 6-{[2-(2-hydroxyethyl)morpholin-4-yl]methyl}-2-(3-{3-[(4-methyl-1,2,4-triazol-3-yl)methyl]oxetan-3-yl}phenyl)-4-(trifluoromethyl)-3H-isoindol-1-one], the negative logarithm of the IC50 (pIC50) is not below 7.00 in assay [6] and more than 7.00 in assay [4].

As to `Cn1cnnc1CC1(c2cccc(N3Cc4c(cc(CN5CCOC(C6CC6)C5)cc4C(F)(F)F)C3=O)c2)COC1` (stereo not drawn) [Example 718, 6-[(2-cyclopropylmorpholin-4-yl)methyl]-2-(3-{3-[(4-methyl-1,2,4-triazol-3-yl)methyl]oxetan-3-yl}phenyl)-4-(trifluoromethyl)-3H-isoindol-1-one], the pIC50 is not below 7.00 in assay [6] and more than 7.00 in assay [4].

For the compound `Cn1cnnc1CC1(c2cccc(N3Cc4c(cc(CN5CCOC(C6CCC6)C5)cc4C(F)(F)F)C3=O)c2)COC1` (stereo not drawn) [Example 719, 6-[(2-cyclobutylmorpholin-4-yl)methyl]-2-(3-{3-[(4-methyl-1,2,4-triazol-3-yl)methyl]oxetan-3-yl}phenyl)-4-(trifluoromethyl)-3H-isoindol-1-one], the values for the pIC50 in assay [6] and in assay [4] were not below 7.00 and more than 7.00, respectively.
